{
  "source": "patent US20230295119A1",
  "about": "“SUBSTITUTED PYRIDINES FOR THE TREATMENT OF INFLAMMATORY DISEASES” (GOSSAMER BIO SERVICES, INC., priority 2020, published 2023)",
  "key": {"TYK2 JH2 domain": {"target": "TYK2 JH2 domain (Homo sapiens (Human), UniProt P29597)", "sequence (P29597 589-875)": "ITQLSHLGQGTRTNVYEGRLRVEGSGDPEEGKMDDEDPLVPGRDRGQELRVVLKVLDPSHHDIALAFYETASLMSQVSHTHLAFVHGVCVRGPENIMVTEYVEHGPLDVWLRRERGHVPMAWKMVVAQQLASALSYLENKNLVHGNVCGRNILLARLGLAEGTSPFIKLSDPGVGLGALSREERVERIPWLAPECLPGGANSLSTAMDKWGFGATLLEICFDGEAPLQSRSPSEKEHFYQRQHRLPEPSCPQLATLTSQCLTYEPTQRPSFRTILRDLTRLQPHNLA", "assay": "TYK2 JH2 NanoBRET assay", "format": "binding", "settings": "Table 20, read-out: TYK2 IC50", "method_in_brief": "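HEK293T cells transiently expressing NanoLuc-TYK2 JH2 fusion, incubated 2 h with compound and NanoBRET K10 tracer (0.5 µM final). Target engagement read as acceptor/donor BRET ratio after Nano-Glo substrate plus extracellular NanoLuc inhibitor.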"}, "human JAK1": {"target": "human JAK1 (Homo sapiens (Human), UniProt P23458)", "sequence (P23458 whole entry)": "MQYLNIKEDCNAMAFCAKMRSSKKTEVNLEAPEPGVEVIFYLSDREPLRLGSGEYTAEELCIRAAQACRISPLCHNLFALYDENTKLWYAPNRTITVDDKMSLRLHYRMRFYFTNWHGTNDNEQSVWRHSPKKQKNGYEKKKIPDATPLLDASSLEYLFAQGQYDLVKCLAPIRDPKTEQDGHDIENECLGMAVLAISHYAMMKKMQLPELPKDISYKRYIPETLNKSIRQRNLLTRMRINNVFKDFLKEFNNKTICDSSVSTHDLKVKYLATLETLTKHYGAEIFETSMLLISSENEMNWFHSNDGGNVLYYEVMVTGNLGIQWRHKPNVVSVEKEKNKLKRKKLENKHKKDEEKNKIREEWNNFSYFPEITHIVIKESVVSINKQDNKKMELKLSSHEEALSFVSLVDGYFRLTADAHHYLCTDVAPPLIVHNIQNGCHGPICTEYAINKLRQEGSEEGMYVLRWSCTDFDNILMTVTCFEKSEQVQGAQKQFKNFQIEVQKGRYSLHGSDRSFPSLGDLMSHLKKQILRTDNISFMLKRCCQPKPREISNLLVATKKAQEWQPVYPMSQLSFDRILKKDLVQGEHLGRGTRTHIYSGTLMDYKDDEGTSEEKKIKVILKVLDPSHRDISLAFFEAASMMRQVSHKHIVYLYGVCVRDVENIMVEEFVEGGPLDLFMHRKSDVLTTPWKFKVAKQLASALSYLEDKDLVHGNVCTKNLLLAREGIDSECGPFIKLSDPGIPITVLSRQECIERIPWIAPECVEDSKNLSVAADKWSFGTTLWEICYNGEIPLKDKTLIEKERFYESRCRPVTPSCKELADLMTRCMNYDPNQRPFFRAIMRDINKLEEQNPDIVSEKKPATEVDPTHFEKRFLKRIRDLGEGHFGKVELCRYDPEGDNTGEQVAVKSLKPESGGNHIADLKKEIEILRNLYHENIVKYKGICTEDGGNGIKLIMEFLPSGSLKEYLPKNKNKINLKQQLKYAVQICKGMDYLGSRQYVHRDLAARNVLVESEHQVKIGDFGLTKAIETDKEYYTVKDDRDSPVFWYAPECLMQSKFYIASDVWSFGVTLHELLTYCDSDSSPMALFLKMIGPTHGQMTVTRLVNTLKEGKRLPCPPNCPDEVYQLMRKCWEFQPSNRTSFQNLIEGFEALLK", "assay": "JAK1 TR-FRET kinase assay", "format": "biochemical"}, "human JAK3": {"target": "human JAK3 (Homo sapiens (Human), UniProt P52333)", "sequence (P52333 whole entry)": "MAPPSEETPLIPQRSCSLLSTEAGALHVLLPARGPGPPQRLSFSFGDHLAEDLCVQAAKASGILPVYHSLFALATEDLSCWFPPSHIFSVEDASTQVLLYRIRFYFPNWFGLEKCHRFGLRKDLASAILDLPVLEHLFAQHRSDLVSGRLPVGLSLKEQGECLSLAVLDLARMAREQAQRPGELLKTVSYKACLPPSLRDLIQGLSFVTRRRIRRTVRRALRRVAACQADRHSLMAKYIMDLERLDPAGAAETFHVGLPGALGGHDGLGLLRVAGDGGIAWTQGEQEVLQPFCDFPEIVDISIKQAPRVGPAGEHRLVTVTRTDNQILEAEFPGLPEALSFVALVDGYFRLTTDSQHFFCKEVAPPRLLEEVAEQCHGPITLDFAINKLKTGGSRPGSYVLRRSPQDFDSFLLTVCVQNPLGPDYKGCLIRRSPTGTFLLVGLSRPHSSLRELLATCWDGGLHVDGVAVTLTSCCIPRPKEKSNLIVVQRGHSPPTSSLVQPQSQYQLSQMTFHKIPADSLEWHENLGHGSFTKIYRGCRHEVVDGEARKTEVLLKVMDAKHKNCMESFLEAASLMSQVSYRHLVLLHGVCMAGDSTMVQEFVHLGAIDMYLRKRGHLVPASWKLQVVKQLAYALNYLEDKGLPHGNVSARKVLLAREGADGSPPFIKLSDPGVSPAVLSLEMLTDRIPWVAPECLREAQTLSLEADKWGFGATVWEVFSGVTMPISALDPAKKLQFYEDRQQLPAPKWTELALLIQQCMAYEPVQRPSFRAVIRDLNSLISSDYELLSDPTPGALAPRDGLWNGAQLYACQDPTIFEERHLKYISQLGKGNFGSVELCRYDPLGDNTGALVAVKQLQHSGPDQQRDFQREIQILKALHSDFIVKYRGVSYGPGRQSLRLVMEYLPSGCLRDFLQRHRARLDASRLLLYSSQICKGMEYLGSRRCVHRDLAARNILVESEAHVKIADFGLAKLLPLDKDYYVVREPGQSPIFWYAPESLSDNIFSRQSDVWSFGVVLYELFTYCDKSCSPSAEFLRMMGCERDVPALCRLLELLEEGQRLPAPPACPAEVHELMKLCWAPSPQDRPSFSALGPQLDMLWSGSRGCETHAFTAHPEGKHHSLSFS", "assay": "JAK3 TR-FRET kinase assay", "format": "biochemical", "settings": "JAK3 0.0125 nM"}, "human JAK2": {"target": "human JAK2 (Homo sapiens (Human), UniProt O60674)", "sequence (O60674 whole entry)": "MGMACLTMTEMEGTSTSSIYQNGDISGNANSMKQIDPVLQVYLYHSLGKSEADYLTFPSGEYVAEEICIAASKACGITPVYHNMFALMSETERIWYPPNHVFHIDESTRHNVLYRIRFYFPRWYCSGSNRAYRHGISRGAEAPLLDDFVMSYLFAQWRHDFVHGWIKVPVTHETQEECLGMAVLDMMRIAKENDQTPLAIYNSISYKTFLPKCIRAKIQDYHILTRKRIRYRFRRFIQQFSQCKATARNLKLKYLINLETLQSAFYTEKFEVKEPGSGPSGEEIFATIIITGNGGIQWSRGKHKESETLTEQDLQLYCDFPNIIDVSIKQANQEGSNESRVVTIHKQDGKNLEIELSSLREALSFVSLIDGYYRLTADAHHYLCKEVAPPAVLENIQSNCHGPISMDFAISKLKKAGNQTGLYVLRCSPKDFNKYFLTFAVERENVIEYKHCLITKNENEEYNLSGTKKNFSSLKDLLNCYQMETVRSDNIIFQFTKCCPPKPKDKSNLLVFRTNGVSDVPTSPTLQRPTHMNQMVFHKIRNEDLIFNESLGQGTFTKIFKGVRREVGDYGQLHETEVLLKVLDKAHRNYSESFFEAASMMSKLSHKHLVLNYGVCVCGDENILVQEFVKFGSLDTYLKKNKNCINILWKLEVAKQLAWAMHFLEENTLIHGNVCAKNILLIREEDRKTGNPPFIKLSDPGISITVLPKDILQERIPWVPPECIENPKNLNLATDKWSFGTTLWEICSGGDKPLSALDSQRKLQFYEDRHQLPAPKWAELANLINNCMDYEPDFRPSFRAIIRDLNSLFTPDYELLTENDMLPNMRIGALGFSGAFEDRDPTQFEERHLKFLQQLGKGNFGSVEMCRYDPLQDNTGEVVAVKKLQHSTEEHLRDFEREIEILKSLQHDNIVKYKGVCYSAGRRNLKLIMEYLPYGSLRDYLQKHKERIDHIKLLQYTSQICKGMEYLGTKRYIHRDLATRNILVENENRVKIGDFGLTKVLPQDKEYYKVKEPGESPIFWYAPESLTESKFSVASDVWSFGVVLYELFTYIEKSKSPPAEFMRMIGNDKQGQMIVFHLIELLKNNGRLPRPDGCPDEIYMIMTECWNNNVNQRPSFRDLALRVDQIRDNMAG", "assay": "JAK2 TR-FRET kinase assay", "format": "biochemical", "settings": "JAK2 0.025 nM"}},
  "note": "Like-named read-outs stand apart in the source and are kept apart here.",
  "data": [
    {"smiles": "CCC(=O)c1cnc(Nc2cc(OCCOC)n(C)n2)cc1Nc1cccc(-c2ncn(C)n2)c1OC", "note": "[Compound 24A, 1-(4-((2-methoxy-3-(1-methyl-1H-1,2,4-triazol-3-yl)phenyl)amino)-6-((5-(2-methoxyethoxy)-1-methyl-1H-pyrazol-3-yl)amino)pyridin-3-yl)propan-1-one]", "values": [
      {"measurement": "IC50", "setting": "TYK2 JH2 domain", "result": "< 5", "unit": "nM"},
      {"measurement": "IC50", "setting": "human JAK1", "result": "> 500", "unit": "nM"},
      {"measurement": "IC50", "setting": "human JAK3", "result": "50 to 500", "unit": "nM"},
      {"measurement": "IC50", "setting": "human JAK2", "result": "50 to 500", "unit": "nM"}
    ]},
    {"smiles": "CCC(=O)c1cnc(NC(=O)C2CC2)cc1Nc1cc(F)cc(-c2ncn(C)n2)c1OC", "note": "[Compound 25A, N-(4-((5-fluoro-2-methoxy-3-(1-methyl-1H-1,2,4-triazol-3-yl)phenyl)amino)-5-propionylpyridin-2-yl)cyclopropanecarboxamide]", "values": [
      {"measurement": "IC50", "setting": "TYK2 JH2 domain", "result": "5 to 50", "unit": "nM"},
      {"measurement": "IC50", "setting": "human JAK1; TR-FRET, JAK1 2.5 nM", "result": "≥ 500", "unit": "nM"},
      {"measurement": "IC50", "setting": "human JAK3", "result": "≥ 500", "unit": "nM"},
      {"measurement": "IC50", "setting": "human JAK2", "result": "≥ 500", "unit": "nM"}
    ]},
    {"smiles": "CCC(=O)c1cnc(NC(=O)C2CC2)cc1Nc1cc(C#N)cc(-c2ncn(C)n2)c1OC", "note": "[Compound 25B]", "values": [
      {"measurement": "IC50", "setting": "TYK2 JH2 domain", "result": "≥ 500", "unit": "nM"},
      {"measurement": "IC50", "setting": "human JAK1; TR-FRET, JAK1 2.5 nM", "result": "≥ 500", "unit": "nM"},
      {"measurement": "IC50", "setting": "human JAK3", "result": "≥ 500", "unit": "nM"},
      {"measurement": "IC50", "setting": "human JAK2", "result": "≥ 500", "unit": "nM"}
    ]},
    {"smiles": "CCC(=O)c1cnc(NC(=O)C2CC2)cc1Nc1cc(CN(C)C)cc(-c2ncn(C)n2)c1OC", "note": "[Compound 25C]", "values": [
      {"measurement": "IC50", "setting": "TYK2 JH2 domain", "result": "≥ 500", "unit": "nM"},
      {"measurement": "IC50", "setting": "human JAK1; TR-FRET, JAK1 2.5 nM", "result": "≥ 500", "unit": "nM"},
      {"measurement": "IC50", "setting": "human JAK3", "result": "≥ 500", "unit": "nM"},
      {"measurement": "IC50", "setting": "human JAK2", "result": "≥ 500", "unit": "nM"}
    ]},
    {"smiles": "CCC(=O)c1cnc(NC(=O)C2CC2)cc1Nc1cc(CO)cc(-c2ncn(C)n2)c1OC", "note": "[Compound 25D]", "values": [
      {"measurement": "IC50", "setting": "TYK2 JH2 domain", "result": "50 to 500", "unit": "nM"},
      {"measurement": "IC50", "setting": "human JAK1; TR-FRET, JAK1 2.5 nM", "result": "≥ 500", "unit": "nM"},
      {"measurement": "IC50", "setting": "human JAK3", "result": "≥ 500", "unit": "nM"},
      {"measurement": "IC50", "setting": "human JAK2", "result": "≥ 500", "unit": "nM"}
    ]},
    {"smiles": "CCC(=O)c1cnc(NC(=O)C2CC2)cc1Nc1cc(COC)cc(-c2ncn(C)n2)c1OC", "note": "[Compound 25E]", "values": [
      {"measurement": "IC50", "setting": "TYK2 JH2 domain", "result": "50 to 500", "unit": "nM"},
      {"measurement": "IC50", "setting": "human JAK1; TR-FRET, JAK1 2.5 nM", "result": "≥ 500", "unit": "nM"},
      {"measurement": "IC50", "setting": "human JAK3", "result": "≥ 500", "unit": "nM"},
      {"measurement": "IC50", "setting": "human JAK2", "result": "≥ 500", "unit": "nM"}
    ]},
    {"smiles": "CCC(=O)c1cnc(NC(=O)C2CC2)cc1Nc1cc(F)cc(-c2ncn(CCO)n2)c1OC", "note": "[Compound 25F]", "values": [
      {"measurement": "IC50", "setting": "TYK2 JH2 domain", "result": "50 to 500", "unit": "nM"},
      {"measurement": "IC50", "setting": "human JAK1; TR-FRET, JAK1 2.5 nM", "result": "≥ 500", "unit": "nM"},
      {"measurement": "IC50", "setting": "human JAK3", "result": "≥ 500", "unit": "nM"},
      {"measurement": "IC50", "setting": "human JAK2", "result": "≥ 500", "unit": "nM"}
    ]},
    {"smiles": "CCC(=O)c1cnc(NC2=NN(C(=O)C3CC3)CC2)cc1Nc1cccc(-c2ncn(C)n2)c1OC", "note": "[Compound 26A, 1-(6-((1-(cyclopropanecarbonyl)-4,5-dihydro-1H-pyrazol-3-yl)amino)-4-((2-methoxy-3-(1-methyl-1H-1,2,4-triazol-3-yl)phenyl)amino)pyridin-3-yl)propan-1-one]", "values": [
      {"measurement": "IC50", "setting": "TYK2 JH2 domain", "result": "5 to 50", "unit": "nM"},
      {"measurement": "IC50", "setting": "human JAK1; TR-FRET, JAK1 2.5 nM", "result": "≥ 500", "unit": "nM"},
      {"measurement": "IC50", "setting": "human JAK3", "result": "≥ 500", "unit": "nM"},
      {"measurement": "IC50", "setting": "human JAK2", "result": "≥ 500", "unit": "nM"}
    ]},
    {"smiles": "COc1c(Nc2cc(Nc3ccc(CS(C)(=O)=O)cn3)ncc2C(=O)C2CC2)cccc1-c1ncn(C)n1", "note": "[Compound 130]", "values": [
      {"measurement": "IC50", "setting": "TYK2 JH2 domain", "result": "< 5", "unit": "nM"},
      {"measurement": "IC50", "setting": "human JAK1; TR-FRET, JAK1 2.5 nM", "result": "≥ 500", "unit": "nM"},
      {"measurement": "IC50", "setting": "human JAK3", "result": "≥ 500", "unit": "nM"},
      {"measurement": "IC50", "setting": "human JAK2", "result": "≥ 500", "unit": "nM"}
    ]},
    {"smiles": "CCC(=O)c1cnc(Nc2ccnc(OCCO)n2)cc1Nc1cccc(-c2ncn(C)n2)c1OC", "note": "[Compound 180]", "values": [
      {"measurement": "IC50", "setting": "TYK2 JH2 domain", "result": "< 5", "unit": "nM"},
      {"measurement": "IC50", "setting": "human JAK1; TR-FRET, JAK1 2.5 nM", "result": "≥ 500", "unit": "nM"},
      {"measurement": "IC50", "setting": "human JAK3", "result": "≥ 500", "unit": "nM"},
      {"measurement": "IC50", "setting": "human JAK2", "result": "≥ 500", "unit": "nM"}
    ]},
    {"smiles": "CCC(=O)c1cnc(Nc2ccn([C@H]3C[C@H](C#N)C3)n2)cc1Nc1cccc(-c2ncn(C)n2)c1OC", "note": "[Compound 210]", "values": [
      {"measurement": "IC50", "setting": "TYK2 JH2 domain", "result": "5 to 50", "unit": "nM"},
      {"measurement": "IC50", "setting": "human JAK1; TR-FRET, JAK1 2.5 nM", "result": "≥ 500", "unit": "nM"},
      {"measurement": "IC50", "setting": "human JAK3", "result": "≥ 500", "unit": "nM"},
      {"measurement": "IC50", "setting": "human JAK2", "result": "≥ 500", "unit": "nM"}
    ]},
    {"smiles": "CCC(=O)c1cnc(Nc2cnc(O[C@H]3CN[C@@H](C(F)F)C3)cn2)cc1Nc1cccc(-c2ncn(C)n2)c1OC", "note": "[Compound 18000]", "values": [
      {"measurement": "IC50", "setting": "TYK2 JH2 domain", "result": "5 to 50", "unit": "nM"},
      {"measurement": "IC50", "setting": "human JAK1; TR-FRET, JAK1 2.5 nM", "result": "≥ 500", "unit": "nM"},
      {"measurement": "IC50", "setting": "human JAK3", "result": "≥ 500", "unit": "nM"},
      {"measurement": "IC50", "setting": "human JAK2", "result": "≥ 500", "unit": "nM"}
    ]}
  ]
}
